Source: US4100346A, “Certain 7(o-amino-methyl- or methylaminomethylphenyl- or cyclohexadienyl- or thienylacetamide)-3[1-carboxymethyl-(or ethyl- or propyl-)-tetrazol-5-ylthiomethyl]-3-cephem-4-carboxylic acids” (Bristol-Myers Company, priority 1976, dated 1978)
In brackets after ≈: the same amount, converted by molar mass. Like-named read-outs stand apart in the source and are kept apart here.

What was measured:
Staphylococcus aureus = assay: Intramuscular treatment of systemically infected mice; format: in vivo; settings: im, read-out: PD50 /treatment
Excerpt: (§1) Treatment of Systemically Infected Mice. The procedures were identical with those published previously [Leitner et al., BL-S640, a Cephalosporin With a Broad Spectrum of Antibacterial Activity: Bioavailability and Therapeutic Properties in Rodents, Antimicrob. Agents Chemother. 7:306-310, (1975)], except that:
(§2) (a) the hog gastric mucin used in infections with Staphylococcus aureus No. 2 was purchased from American Laboratories, Inc., Omaha, Neb. (lot No. 154163) and b) that the medium used to suspend all other organisms contained 3% (rather than 4%) hog gastric mucin (type 1701W, Wilson Laboratories, Inc., Park Forest South, Ill.).
(§3) *Animals infected with penicillinase-producing staphyloccal strains (No.
(§4) and 3) were treated 0 and 2 hours after infection; the others were treate
(§5) 1 and 3.5 hours after infection.

Streptococcus pyogenes = assay: as above; format: in vivo; settings: im, 3.5 h, read-out: PD50 /treatment
Excerpt: as §1, §2, §3, §4, §5

Streptococcus pneumoniae = assay: as above; format: in vivo; settings: im, 3.5 h, read-out: PD50 /treatment
Excerpt: as §1, §2, §3, §4, §5

in vitro = in vitro ADME, human; settings: human, serum; read-out: protein bound (converted)
Haemophilus influenzae = assay: Growth inhibitory activity, antibiotic dilution technique; settings: including 9 ampicillin-resistant strains
[1] = molecular target: staphylococcal β-lactamase, Staphylococcus aureus A9606 (Staphylococcus aureus, UniProt P00807); assay: Hydrolysis by β-lactamase in cell-free extracts; format: biochemical; settings: cell-free extract
staphylococcal β-lactamase, Staphylococcus aureus A9606, sequence (P00807 25-281): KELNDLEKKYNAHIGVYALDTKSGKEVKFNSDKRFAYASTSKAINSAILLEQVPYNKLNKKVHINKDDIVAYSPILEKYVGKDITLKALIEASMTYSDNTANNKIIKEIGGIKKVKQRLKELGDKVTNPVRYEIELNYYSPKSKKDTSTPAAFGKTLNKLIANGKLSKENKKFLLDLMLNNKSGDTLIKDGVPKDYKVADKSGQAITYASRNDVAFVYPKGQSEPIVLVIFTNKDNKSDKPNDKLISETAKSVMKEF
Procedure: Miscellaneous. Methods for determining bactericidal activity and susceptibility to cell-free β-lactamase were those previously used; Leitner et al., BL-S640, A Cephalosporin With a Broad Spectrum of Antibacterial Activity: Properties in vitro, Antimicrob. Agents Chemother. 7:298-305 (1975).
Susceptibility to β-lactamase. Susceptibility to enzymic hydrolysis was assessed by determining relative rates of hydrolysis by cell-free preparations of various β-lactamases (Table 6). BL-S786 was slightly to markedly less susceptible than the other cephalosporins to hydrolysis by β-lactamases of Type Ia, Ib, IIIa and IVa. All cephalosporins were poor substrates for Type IIa and staphylococcal β-lactamases. The four cephalosporins were hydrolyzed at similar rates by the Type IVb enzyme.

Edwardsiella tarda = assay: Growth inhibitory activity, antibiotic dilution technique; settings: read-out: Minimum inhibitory concentration
Proteus mirabilis [2] = assay: Effect of inoculum size on susceptibility of Enterobacteriaceae
Pseudomonas aeruginosa = assay: Growth inhibitory activity, antibiotic dilution technique; settings: read-out: Minimum inhibitory concentration
Providencia stuartii [3] = assay: as above
Proteus morganii = assay: Intramuscular treatment of systemically infected mice; format: in vivo; settings: Morganella morganii, im, 3.5 h, read-out: PD50 /treatment
Excerpt: as §1, §2
(§6) *Animals were treated twice; 1 and 3.5 hours after infection.

Klebsiella pneumoniae = assay: as above; format: in vivo; settings: im, 3.5 h, read-out: PD50 /treatment
Excerpt: as §1, §2, §6

Escherichia coli = assay: as above; format: in vivo; settings: im, 3.5 h, read-out: PD50 /treatment
Excerpt: as §1, §2, §6

Proteus rettgeri = assay: as above; format: in vivo; settings: Providencia rettgeri, im, Proteus rettgeri strain 4, challenge 2×10^6 -3×10^6, treated 1 and 3.5 hours after infection, read-out: PD50 /treatment
Excerpt: as §1, §2, §6

Proteus mirabilis [4] = assay: as above; format: in vivo; settings: im, 3.5 h, read-out: PD50 /treatment
Excerpt: as §1, §2, §6

Proteus vulgaris = assay: as above; format: in vivo; settings: im, 3.5 h, read-out: PD50 /treatment
Excerpt: as §1, §2, §6

Providencia stuartii [5] = assay: as above; format: in vivo; settings: im, 3.5 h, read-out: PD50 /treatment
Excerpt: as §1, §2, §6

Citrobacter sp. = assay: as above; format: in vivo; settings: im, Citrobacter sp. strain 1, challenge 5×10^6 -2×10^7, treated 1 and 3.5 hours after infection, read-out: PD50 /treatment
Excerpt: as §1, §2, §6

Enterobacter cloacae = assay: Effect of inoculum size on susceptibility of Enterobacteriaceae

`CC(=O)OCC1=C(C(=O)O)N2C(=O)[C@@H](NC(=O)Cc3cccs3)[C@H]2SC1` [Cephalothin] showed an ED50 (Staphylococcus aureus; 3.5 h, Staphylococcus aureus strain 1, challenge 2 × 10^5 - 3 × 10^5, treated 1 and 3.5 hours after infection) of 0.3 mg/kg, an ED50 (Staphylococcus aureus; Staphylococcus aureus strain 2 (penicillinase-producing), challenge 1 × 10^9, treated 0 and 2 hours after infection) of 9.3 mg/kg and an ED50 (Staphylococcus aureus; Staphylococcus aureus strain 3 (penicillinase-producing), challenge 5 × 10^8 - 7 × 10^9, treated 0 and 2 hours after infection) of 32 mg/kg. For the same compound, the ED50 (Streptococcus pyogenes; Streptococcus pyogenes strain 1, challenge 2 × 10^3 -6 × 10^3, treated 1 and 3.5 hours after infection) was 4.5 mg/kg, the ED50 (Streptococcus pyogenes; Streptococcus pyogenes strain 2, challenge 1 × 10^4 - 5 × 10^4, treated 1 and 3.5 hours after infection) was 2.7 mg/kg and the ED50 (Streptococcus pneumoniae; Streptococcus pneumoniae strain 1, challenge 2 × 10^3 - 9 × 10^3, treated 1 and 3.5 hours after infection) was 4 mg/kg. For the same compound, the ED50 (Streptococcus pneumoniae; Streptococcus pneumoniae strain 2, challenge 1 × 10^4 - 3 × 10^4, treated 1 and 3.5 hours after infection) was 19 mg/kg, the fraction unbound (in vitro) was 0.33 and the “relative activity against Haemophilus influenzae” value (Haemophilus influenzae) was “more than twice as active”. For the same compound, the “Relative Rate of Hydrolysis (benzylpenicillin = 100)” value [1] was under 0.5, the MIC (Edwardsiella tarda) was 1 µg/mL (≈ 2.52 µM) and the MIC (Proteus mirabilis [2]; read-out: Minimum Inhibitory Concentration, Proteus mirabilis strain 1, A, Inoculum of 10^2 organisms) was 8 µg/mL (≈ 20.2 µM). For the same compound, the MIC (Proteus mirabilis [2]; read-out: Minimum Inhibitory Concentration, Proteus mirabilis strain 1, B, Inoculum of 10^6 organisms) was 16 µg/mL (≈ 40.4 µM), the MIC (Proteus mirabilis [2]; read-out: Minimum Inhibitory Concentration, Proteus mirabilis strain 2, A, Inoculum of 10^2 organisms) was 4 µg/mL (≈ 10.1 µM) and the MIC (Proteus mirabilis [2]; read-out: Minimum Inhibitory Concentration, Proteus mirabilis strain 2, B, Inoculum of 10^6 organisms) was 32 µg/mL (≈ 80.7 µM). For the same compound, the MIC (Proteus mirabilis [2]; read-out: Minimum Inhibitory Concentration, Proteus mirabilis strain 3, A, Inoculum of 10^2 organisms) was 16 µg/mL (≈ 40.4 µM), the MIC (Proteus mirabilis [2]; read-out: Minimum Inhibitory Concentration, Proteus mirabilis strain 3, B, Inoculum of 10^6 organisms) was 32 µg/mL (≈ 80.7 µM) and the MIC (Proteus mirabilis [2]; read-out: Minimum Inhibitory Concentration, Proteus mirabilis strain 4, A, Inoculum of 10^2 organisms) was 8 µg/mL (≈ 20.2 µM). For the same compound, the MIC (Proteus mirabilis [2]; read-out: Minimum Inhibitory Concentration, Proteus mirabilis strain 4, B, Inoculum of 10^6 organisms) was 32 µg/mL (≈ 80.7 µM), the MIC (Proteus mirabilis [2]; read-out: Minimum Inhibitory Concentration, Proteus mirabilis strain 5, A, Inoculum of 10^2 organisms) was 8 µg/mL (≈ 20.2 µM) and the MIC (Proteus mirabilis [2]; read-out: Minimum Inhibitory Concentration, Proteus mirabilis strain 5, B, Inoculum of 10^6 organisms) was 32 µg/mL (≈ 80.7 µM). The MIC (Pseudomonas aeruginosa) was over 125 µg/mL, the “percent of strains inhibited” value (Providencia stuartii [3]) was “negligible” and the ED50 (Proteus morganii; Proteus morganii strain 1, challenge 1×10^5 -4×10^5, treated 1 and 3.5 hours after infection) was over 350 mg/kg. For the same compound, the ED50 (Proteus morganii; Proteus morganii strain 2, challenge 2×10^6 -3×10^6, treated 1 and 3.5 hours after infection) was over 400 mg/kg, the ED50 (Klebsiella pneumoniae; Klebsiella pneumoniae strain 1, challenge 4×10^4 -5×10^4, treated 1 and 3.5 hours after infection) was 94 mg/kg and the ED50 (Klebsiella pneumoniae; Klebsiella pneumoniae strain 7, challenge 9×10^2 -1×10^3, treated 1 and 3.5 hours after infection) was over 380 mg/kg. It also gave an ED50 (Escherichia coli; Escherichia coli strain 1, challenge 2×10^5 organisms, treated 1 and 3.5 hours after infection) of 42 mg/kg, an ED50 (Escherichia coli; Escherichia coli strain 8, challenge 6×10^5 -4×10^6, treated 1 and 3.5 hours after infection) of 97 mg/kg and an ED50 (Escherichia coli; Escherichia coli strain 9, challenge 7×10^3 -2×10^4, treated 1 and 3.5 hours after infection) of 180 mg/kg. It also gave an ED50 (Proteus rettgeri) of 140 mg/kg, an ED50 (Proteus mirabilis [4]; Proteus mirabilis strain 1, challenge 7×10^6 -9×10^6, treated 1 and 3.5 hours after infection) of 41 mg/kg and an ED50 (Proteus mirabilis [4]; Proteus mirabilis strain 5, challenge 9×10^5 -3×10^6, treated 1 and 3.5 hours after infection) of 11 mg/kg. It also gave an ED50 (Proteus mirabilis [4]; Proteus mirabilis strain 8, challenge 6×10^5 -4×10^6, treated 1 and 3.5 hours after infection) of 14 mg/kg, an ED50 (Proteus vulgaris; Proteus vulgaris strain 1, challenge 1×10^6 -2×10^6, treated 1 and 3.5 hours after infection) of 11 mg/kg and an ED50 (Proteus vulgaris; Proteus vulgaris strain 3, challenge 4×10^5, treated 1 and 3.5 hours after infection) of 17 mg/kg. It also gave an ED50 (Providencia stuartii [5]; Providencia stuartii strain 2, challenge 1×10^6 ×5×10^6, treated 1 and 3.5 hours after infection) of over 380 mg/kg, an ED50 (Providencia stuartii [5]; Providencia stuartii strain 3, challenge 2×10^7, treated 1 and 3.5 hours after infection) of 160 mg/kg and an ED50 (Citrobacter sp.) of over 340 mg/kg. The MIC (Enterobacter cloacae; read-out: Minimum Inhibitory Concentration, Enterobacter cloacae strain 1, A, Inoculum of 10^2 organisms) was 8 µg/mL (≈ 20.2 µM), the MIC (Enterobacter cloacae; read-out: Minimum Inhibitory Concentration, Enterobacter cloacae strain 1, B, Inoculum of 10^6 organisms) was over 250 µg/mL and the MIC (Enterobacter cloacae; read-out: Minimum Inhibitory Concentration, Enterobacter cloacae strain 2, A, Inoculum of 10^2 organisms) was 16 µg/mL (≈ 40.4 µM). For the same compound, the MIC (Enterobacter cloacae; read-out: Minimum Inhibitory Concentration, Enterobacter cloacae strain 2, B, Inoculum of 10^6 organisms) was over 250 µg/mL, the MIC (Enterobacter cloacae; read-out: Minimum Inhibitory Concentration, Enterobacter cloacae strain 3, A, Inoculum of 10^2 organisms) was 16 µg/mL (≈ 40.4 µM) and the MIC (Enterobacter cloacae; read-out: Minimum Inhibitory Concentration, Enterobacter cloacae strain 3, B, Inoculum of 10^6 organisms) was 250 µg/mL (≈ 631 µM). The MIC (Enterobacter cloacae; read-out: Minimum Inhibitory Concentration, Enterobacter cloacae strain 4, A, Inoculum of 10^2 organisms) was 32 µg/mL (≈ 80.7 µM), the MIC (Enterobacter cloacae; read-out: Minimum Inhibitory Concentration, Enterobacter cloacae strain 4, B, Inoculum of 10^6 organisms) was over 250 µg/mL and the MIC (Enterobacter cloacae; read-out: Minimum Inhibitory Concentration, Enterobacter cloacae strain 5, A, Inoculum of 10^2 organisms) was 16 µg/mL (≈ 40.4 µM). For the same compound, the MIC (Enterobacter cloacae; read-out: Minimum Inhibitory Concentration, Enterobacter cloacae strain 5, B, Inoculum of 10^6 organisms) was 250 µg/mL (≈ 631 µM).
